# Tested on: subjects with advanced malignancies
# Assay: Phase 1 dose escalation: toxicity, safety and tolerability (DLT, MAD, RP2D, AEs)
# Conditions: for TEAE: Abdominal distension / TEAE: Abdominal pain / TEAE: Anemia / TEAE: Asthenia / TEAE: Back pain / TEAE: Constipation / TEAE: Cough / TEAE: Decreased appetite / TEAE: Dehydration / TEAE: Diarrhea / TEAE: Dizziness / TEAE: Dyspnea / TEAE: Fatigue / TEAE: Flatulence / TEAE: Hyperbilirubinemia / TEAE: Hyperglycemia / TEAE: Hyperuricemia / TEAE: Hypokalemia / TEAE: Hypophosphatemia / TEAE: Increased ALP / TEAE: Increased ALT / TEAE: Increased AST / TEAE: Nausea / TEAE: Neutropenia / TEAE: Peripheral edema / TEAE: Pyrexia / TEAE: Subjects with any AE / TEAE: Urinary tract infection / TEAE: Vomiting / TEAE: Weight decreased: ≤ 5.08 mg/m^2 (n = 22)
# Procedure: Subjects continued on treatment until there was disease progression, unacceptable toxicity, or the subject withdrew consent. The trial employed an accelerated titration design [16] starting at a dose of 0.33 mg/m^2 (one-sixth of the highest nontoxic dose in dogs).
# the dose was doubled in sequential subjects until a DLT was observed or a subject experienced grade 2 toxicity [16]. In the case of an observed grade 2 toxicity, a second subject was enrolled at the same dose level. If the second subject also experienced a grade 2 toxicity, 2 additional subjects were accrued at that dose level for a total of 4 subjects. […] Each subject was allocated to only a single dose level of drug. Dose delay or modification was permitted based on laboratory and clinical assessment performed on the day of treatment.
# Dose-limiting toxicities were determined during the first cycle for each dose level. A DLT was defined as any grade 3 or 4 hematologic toxicity lasting for at least 1 week, or as any grade 3 or 4 nonhematologic toxicity. […] Normal alkaline phosphatase level (< grade 1) at screening that rose to greater than or equal to grade 3; grade 1 or 2 alkaline phosphatase level at screening that rose to grade 4; grade 1 or 2 aspartate aminotransferase (AST) and/or alanine aminotransferase (ALT) levels at screening that doubled from baseline to become greater than or equal to grade 3; and any other abnormal nonhematology laboratory value greater than or equal to grade 3 that required medical intervention to treat, led to hospitalization, or persisted for at least 1 week were also considered DLTs.
# Adverse events were graded based on the National Cancer Institute Common Terminology Criteria for Adverse Events (NCI CTCAE version 3.0) and were coded using the Medical Dictionary for Regulatory Activities (MedDRA version 13.0).
compound,measurement,setting,value
CCc1cnn2c(NCc3ccc[n+]([O-])c3)cc(N3CCCC[C@H]3CCO)nc12 [dinaciclib],Subjects with DLT in cycle 1,"Dose level 14 mg/m^2, 5 subjects",2
same,treatment-related AE: anemia,"RP2D 12 mg/m^2, 11 subjects",5 [45%] subjects [%]
same,treatment-related AE: asthenia,"RP2D 12 mg/m^2, 11 subjects",3 [27%] subjects [%]
same,treatment-related AE: fatigue,"RP2D 12 mg/m^2, 11 subjects",4 [36%] subjects [%]
same,treatment-related AE: hyperuricemia,"RP2D 12 mg/m^2, 11 subjects",3 [27%] subjects [%]
same,treatment-related AE: nausea,"RP2D 12 mg/m^2, 11 subjects",3 [27%] subjects [%]
same,treatment-related AE: neutropenia,"RP2D 12 mg/m^2, 11 subjects",4 [36%] subjects [%]
same,treatment-related AE: pyrexia,"RP2D 12 mg/m^2, 11 subjects",3 [27%] subjects [%]
same,treatment-related AE: vomiting,"RP2D 12 mg/m^2, 11 subjects",3 [27%] subjects [%]
same,Serious adverse events,"Subject 2901, Breast carcinoma, 0.33 mg/m^2, regardless of causality","Anemia, confusion, lethargy"
same,Serious adverse events,"Subject 2914, Ovarian epithelial carcinoma, 3.63 mg/m^2, regardless of causality","Constipation, nausea, abdominal pain, vomiting"
same,Serious adverse events,"Subject 2915, Adenocarcinoma, 3.63 mg/m^2, regardless of causality","Hypocalcemia, hypokalemia, hypophosphatemia, coagulation time prolonged"
same,Serious adverse events,"Subject 2919, Colon cancer, 3.63 mg/m^2, regardless of causality","Back pain, chest pain, dyspnea"
same,Serious adverse events,"Subject 2920, Melanoma, 3.63 mg/m^2, regardless of causality","Cholelithiasis, liver disorder"
same,Serious adverse events,"Subject 2922, Ovarian epithelial cancer, 3.63 mg/m^2, regardless of causality","Intestinal ischemia, pericardial effusion"
same,Serious adverse events,"Subject 2926, Pelvic sarcoma, 7.11 mg/m^2, regardless of causality","Deep vein thrombosis, anemia"
same,Serious adverse events,"Subject 2927, Gastric adenocarcinoma, 7.11 mg/m^2, regardless of causality","Vomiting, aspiration"
same,Serious adverse events,"Subject 2928, Gastrointestinal stromal tumor, 7.11 mg/m^2, regardless of causality","Gastric ulcer, hematemesis, asthenia, sepsis, dyspnea, mental status changes, overdose"
same,Serious adverse events,"Subject 2930, SCLC, 7.11 mg/m^2, regardless of causality",Cardiac arrest
same,Serious adverse events,"Subject 2931, Esophageal carcinoma, 7.11 mg/m^2, regardless of causality","Esophageal obstruction, pyrexia, hemorrhagic anemia"
same,Serious adverse events,"Subject 2937, Adenoid cyst carcinoma, 14 mg/m^2, regardless of causality","Pneumothorax, cardiac tamponade, pneumoperitoneum, intestinal perforation, peritonitis, sepsis"
same,Serious adverse events,"Subject 2940, Breast carcinoma, 14 mg/m^2, regardless of causality",Death
same,Serious adverse events,"Subject 2945, NSCLC, 12 mg/m^2, regardless of causality",Cerebrovascular accident
same,Serious adverse events,"Subject 2947, Colorectal cancer, 12 mg/m^2, regardless of causality","Pelvic abscess, septic shock, deep vein thrombosis"
same,Serious adverse events,"Subject 2950, Colon cancer, 12 mg/m^2, regardless of causality","Deep vein thrombosis, bradycardia, respiratory failure, syncope, tumor lysis syndrome"
same,Serious adverse events,"Subject 2951, Ovarian metastatic cancer, 12 mg/m^2, regardless of causality","Anemia, neutropenic sepsis, sepsis, gastrointestinal hemorrhage, diarrhea, bacterial infection, neutropenia, thrombocytopenia"
same,SAE: anemia,all dose levels,3 (6%) subjects (%)
same,SAE: deep vein thrombosis,all dose levels,3 (6%) subjects (%)
same,SAE: sepsis,all dose levels,3 (6%) subjects (%)
same,grade 3 or 4 treatment-related AE: hyperuricemia,all dose levels,3 [6%] subjects [%]
same,grade 3 or 4 treatment-related AE: neutropenia,all dose levels,5 [10%] subjects [%]
same,subjects with AEs leading to discontinuation of treatment,all dose levels,6 (13%) subjects (%)
same,subjects with grade 3 or 4 treatment-related AEs,all dose levels,16 subjects
same,subjects with serious AEs (SAEs),all dose levels,17 (33%) subjects (%)
same,treatment-related AE: anemia,all dose levels,10 [21%] subjects [%]
same,treatment-related AE: fatigue,all dose levels,7 [15%] subjects [%]
same,treatment-related AE: nausea,all dose levels,16 [33%] subjects [%]
same,treatment-related AE: neutropenia,all dose levels,8 [17%] subjects [%]
same,treatment-related AE: vomiting,all dose levels,8 [17%] subjects [%]
same,subjects reporting treatment-emergent adverse events,"all dose levels, 48 treated",47 (98%) subjects (%)
same,subjects with AEs possibly related to study drug,"all dose levels, 48 treated",35 (73%) subjects (%)
same,instances of grade 2 toxicity,at 1.32 mg/m^2,2
same,deaths due to disease progression,"of 52 enrolled, considered unlikely related to study treatment",7 [13%] subjects [%]
same,deaths due to AEs,"of 52 enrolled, deemed unlikely related to dinaciclib, one subject never treated",4 (8%) subjects (%)
same,subjects who died during this study,of the 52 subjects enrolled,21%
same,TEAE: Abdominal distension,All grades,3 (14) n (%)
same,TEAE: Abdominal pain,All grades,4 (18) n (%)
same,TEAE: Anemia,All grades,8 (36) n (%)
same,TEAE: Asthenia,All grades,4 (18) n (%)
same,TEAE: Back pain,All grades,8 (36) n (%)
same,TEAE: Constipation,All grades,5 (23) n (%)
same,TEAE: Cough,All grades,3 (14) n (%)
same,TEAE: Decreased appetite,All grades,9 (41) n (%)
same,TEAE: Dehydration,All grades,8 (36) n (%)
same,TEAE: Diarrhea,All grades,3 (14) n (%)
same,TEAE: Dizziness,All grades,0 n (%)
same,TEAE: Dyspnea,All grades,3 (14) n (%)
same,TEAE: Fatigue,All grades,7 (32) n (%)
same,TEAE: Flatulence,All grades,3 (14) n (%)
same,TEAE: Hyperbilirubinemia,All grades,5 (23) n (%)
same,TEAE: Hyperglycemia,All grades,1 (5) n (%)
same,TEAE: Hyperuricemia,All grades,1 (5) n (%)
same,TEAE: Hypokalemia,All grades,2 (9) n (%)
same,TEAE: Hypophosphatemia,All grades,4 (18) n (%)
same,TEAE: Increased ALP,All grades,3 (14) n (%)
same,TEAE: Increased ALT,All grades,3 (14) n (%)
same,TEAE: Increased AST,All grades,3 (14) n (%)
same,TEAE: Nausea,All grades,6 (27) n (%)
same,TEAE: Neutropenia,All grades,0 n (%)
same,TEAE: Peripheral edema,All grades,3 (14) n (%)
same,TEAE: Pyrexia,All grades,3 (14) n (%)
same,TEAE: Subjects with any AE,All grades,21 (95) n (%)
same,TEAE: Urinary tract infection,All grades,5 (23) n (%)
same,TEAE: Vomiting,All grades,2 (9) n (%)
same,TEAE: Weight decreased,All grades,4 (18) n (%)
same,TEAE: Abdominal distension,Grade 3–4,0 n (%)
same,TEAE: Abdominal pain,Grade 3–4,1 (5) n (%)
same,TEAE: Anemia,Grade 3–4,1 (5) n (%)
same,TEAE: Asthenia,Grade 3–4,2 (9) n (%)
same,TEAE: Back pain,Grade 3–4,3 (14) n (%)
same,TEAE: Constipation,Grade 3–4,0 n (%)
same,TEAE: Cough,Grade 3–4,0 n (%)
same,TEAE: Decreased appetite,Grade 3–4,0 n (%)
same,TEAE: Dehydration,Grade 3–4,0 n (%)
same,TEAE: Diarrhea,Grade 3–4,0 n (%)
same,TEAE: Dizziness,Grade 3–4,0 n (%)
same,TEAE: Dyspnea,Grade 3–4,1 (5) n (%)
same,TEAE: Fatigue,Grade 3–4,2 (9) n (%)
same,TEAE: Flatulence,Grade 3–4,0 n (%)
same,TEAE: Hyperbilirubinemia,Grade 3–4,3 (14) n (%)
same,TEAE: Hyperglycemia,Grade 3–4,0 n (%)
same,TEAE: Hyperuricemia,Grade 3–4,1 (5) n (%)
same,TEAE: Hypokalemia,Grade 3–4,1 (5) n (%)
same,TEAE: Hypophosphatemia,Grade 3–4,3 (14) n (%)
same,TEAE: Increased ALP,Grade 3–4,1 (5) n (%)
same,TEAE: Increased ALT,Grade 3–4,1 (5) n (%)
same,TEAE: Increased AST,Grade 3–4,1 (5) n (%)
same,TEAE: Nausea,Grade 3–4,0 n (%)
same,TEAE: Neutropenia,Grade 3–4,0 n (%)
same,TEAE: Peripheral edema,Grade 3–4,0 n (%)
same,TEAE: Pyrexia,Grade 3–4,0 n (%)
same,TEAE: Subjects with any AE,Grade 3–4,11 (50) n (%)
same,TEAE: Urinary tract infection,Grade 3–4,0 n (%)
same,TEAE: Vomiting,Grade 3–4,1 (5) n (%)
same,TEAE: Weight decreased,Grade 3–4,0 n (%)

# From PMC3853718 (Journal of Translational Medicine, 2013)
